Assay results reported in the supplement of paper PMC7840683.

System: HepaRG
Assay: LDH release cytotoxicity, % of total lysis control; higher = more cytotoxic
Conditions: 48 h
Summary of the method: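 HepaRG cells from a single lot were plated on collagen I-coated 96-well plates and treated in duplicate for 48 h with eight-point half-log series of test chemicals, starting at 100 µM, in serum-free induction medium containing 0.5% DMSO. Total lysis wells were given 0.1% Triton X. LDH released into 50 µL of spent medium was measured as resorufin fluorescence with CytoTox-ONE on a Tecan Safire. Percent cytotoxicity was normalized to on-plate vehicle and total lysis controls and then averaged across duplicates.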

CCNc1cccc(C)c1 [N-Ethyl-3-methylaniline]
Conditions	LDH release cytotoxicity [%]
0.03162 µM	-1.25
0.1 µM	-0.734
0.3162278 µM	-1.13
1 µM	-0.866
3.16228 µM	-0.912
10 µM	-0.509
31.6228 µM	-0.424
100 µM	1.66

CCNc1ccccc1 [N-Ethylaniline]
Conditions	LDH release cytotoxicity [%]
0.03162 µM	-1.05
0.1 µM	-1.82
0.3162278 µM	-0.782
1 µM	-2.09
3.16228 µM	-0.812
10 µM	-0.444
31.6228 µM	-0.781
100 µM	0.942

CCNS(=O)(=O)C(F)(F)C(F)(F)C(F)(F)C(F)(F)C(F)(F)C(F)(F)C(F)(F)C(F)(F)F [N-Ethylperfluorooctanesulfonamide]
Conditions	LDH release cytotoxicity [%]
0.03162 µM	-0.318
0.1 µM	-0.363
0.3162278 µM	-1.47
1 µM	-0.894
3.16228 µM	-1.27
10 µM	-0.5
31.6228 µM	0.958
100 µM	2.37

CN1CCCC1=O [N-Methyl-2-pyrrolidone]
Conditions	LDH release cytotoxicity [%]
0.03162 µM	-2.92
0.1 µM	-3.16
0.3162278 µM	-2.9
1 µM	-2.75
3.16228 µM	-1.74
10 µM	-1.93
31.6228 µM	-2.93
100 µM	7.04

CNC(C)=O [N-Methylacetamide]
Conditions	LDH release cytotoxicity [%]
0.03162 µM	-1.43
0.1 µM	-0.843
0.3162278 µM	-1.8
1 µM	-2.12
3.16228 µM	-2.26
10 µM	-2.1
31.6228 µM	-2.47
100 µM	34

CCCCCCCCN(C)CCCCCCCC [N-Methyldioctylamine]
Conditions	LDH release cytotoxicity [%]
0.03162 µM	-0.874
0.1 µM	-1.29
0.3162278 µM	-1.43
1 µM	-1.23
3.16228 µM	-0.708
10 µM	-1.14
31.6228 µM	-0.369
100 µM	0.33

CCCN(CCC)N=O [N-Nitrosodi-n-propylamine]
Conditions	LDH release cytotoxicity [%]
0.03162 µM	0.0788
0.1 µM	-0.576
0.3162278 µM	-1.11
1 µM	-2.21
3.16228 µM	-1.474
10 µM	-1.09
31.6228 µM	-1.53
100 µM	0.635

CCCCN(CCCC)N=O [N-Nitrosodibutylamine]
Conditions	LDH release cytotoxicity [%]
0.03162 µM	-1.09
0.1 µM	-1.36
0.3162278 µM	-1.56
1 µM	-2.27
3.16228 µM	-1.56
10 µM	-1.2
31.6228 µM	-1.12
100 µM	0.0939

CCN(CC)N=O [N-Nitrosodiethylamine]
Conditions	LDH release cytotoxicity [%]
0.03162 µM	-0.893
0.1 µM	-0.536
0.3162278 µM	-0.901
1 µM	-0.963
3.16228 µM	-0.649
10 µM	-1.08
31.6228 µM	0.447
100 µM	0.842

CN(C)N=O [N-Nitrosodimethylamine]
Conditions	LDH release cytotoxicity [%]
0.02893 µM	0.0505
0.0915 µM	-1.57
0.289348 µM	-0.817
0.915 µM	-1.29
2.89348 µM	-2.32
9.15 µM	-0.967
28.9348 µM	-0.682
91.5 µM	0.3

O=NN(c1ccccc1)c1ccccc1 [N-Nitrosodiphenylamine]
Conditions	LDH release cytotoxicity [%]
0.03162 µM	-1.74
0.1 µM	-0.497
0.3162278 µM	-1.57
1 µM	-1.63
3.16228 µM	-0.54
10 µM	-0.535
31.6228 µM	1.3
100 µM	15.9

Nc1ccc(Nc2ccccc2)cc1 [N-Phenyl-1,4-benzenediamine]
Conditions	LDH release cytotoxicity [%]
0.03162 µM	-1.18
0.1 µM	-0.818
0.3162278 µM	-1.06
1 µM	-0.838
3.16228 µM	-0.438
10 µM	-0.107
31.6228 µM	1.04
100 µM	3.97

C=CN1CCCC1=O [N-Vinyl-2-pyrrolidone]
Conditions	LDH release cytotoxicity [%]
0.01581 µM	-1.31
0.05 µM	-2.25
0.1581139 µM	-2.68
0.5 µM	-2.71
1.5811388 µM	-2.96
5 µM	-2.54
15.8114 µM	-1.96
50 µM	-0.521

COP(=O)(OC)OC(Br)C(Cl)(Cl)Br (centres undefined) [Naled]
Conditions	LDH release cytotoxicity [%]
0.03162 µM	-2.18
0.1 µM	-1.58
0.3162278 µM	-1.53
1 µM	-2.25
3.16228 µM	-0.95
10 µM	-1.19
31.6228 µM	-0.943
100 µM	-0.896

c1ccc2ccccc2c1 [Naphthalene]
Conditions	LDH release cytotoxicity [%]
0.03162 µM	-0.307
0.1 µM	-1.13
0.3162278 µM	-0.248
1 µM	-0.532
3.16228 µM	0.237
10 µM	1.23
31.6228 µM	0.531
100 µM	2.74

CCN(CC)C(=O)C(C)Oc1cccc2ccccc12 (centres undefined) [Napropamide]
Conditions	LDH release cytotoxicity [%]
0.03162 µM	-0.242
0.1 µM	-0.853
0.3162278 µM	-1.37
1 µM	-0.226
3.16228 µM	-1.59
10 µM	-0.144
31.6228 µM	0.0468
100 µM	1.05

COc1ccc(S(=O)(=O)N2C(=O)C(c3ccccc3OC)(N3CC(O)CC3C(=O)N(C)C)c3cc(Cl)ccc32)c(OC)c1 (centres undefined) [Nelivaptan]
Conditions	LDH release cytotoxicity [%]
0.03162 µM	-0.817
0.1 µM	0.214
0.3162278 µM	0.146
1 µM	-0.447
3.16228 µM	-0.164
10 µM	0.998
31.6228 µM	-0.141
100 µM	-0.056

CN1CCCC1c1cccnc1 (centres undefined) [Nicotine]
Conditions	LDH release cytotoxicity [%]
0.031623 µM	0.0561
0.1 µM	-2.6
0.316228 µM	-2.47
1 µM	-2.55
3.16228 µM	-2.4
10 µM	-2.95
31.6228 µM	-1.31
100 µM	0.154
